Values quoted from earlier work as cited in patent publication US20060127478A1, “Oral dosage formulation” (priority 2003, published 2006).
Read-outs that look alike come from different tables or passages of the source.

Experiments:
[1] = in vivo
[2] = Taha et al., NEJM 1996
gastric secretion = details: following oral administration

Structure (SMILES) | incidence of adverse effects (abdominal pain, diarrhea, nausea, flatulence) [1] | frequency of gastric and duodenal ulcers associated with non-selective NSAIDs (diclofenac, ibuprofen, naproxen, ketoprofen) [2] | nocturnal intra-gastric pH, mean value (nocturnal dose of 20 mg) | nocturnal intra-gastric pH, mean value (nocturnal dose of 40 mg) | basal daytime inter-digestive pH (three and eight hours following administration after breakfast of 20 or 40 mg) | time at which basal, nocturnal, food and pentagastrin stimulated gastric secretion is inhibited (gastric secretion) | time to maximum effect on gastric secretion (gastric secretion; maximum effect dose dependent)
CCCCC(C)(O)C/C=C/[C@H]1[C@H](O)CC(=O)[C@@H]1CCCCCCC(=O)OC (mixture of isomers) [Misoprostol] | high incidence | – | – | – | – | – | –
NC(N)=Nc1nc(CSCCC(N)=NS(N)(=O)=O)cs1 [Famotidine] | – | reduce the frequency | 5.0 | 6.4 | about 5 | one | one to three
